Source: US20100135905A1, “ASSESSMENT OF CANCER SUSCEPTIBILITY TO MOLECULAR TARGETED THERAPY BY USE OF RECOMBINANT PEPTIDES” (priority 2004, published 2010)

Legend:
LLC tumors [1] = assay: In vivo panning of T7 phage peptide library: phage recovered from irradiated LLC tumors; design: species or system mice
Experimental: (§1) GL261 murine glioma cells and Lewis lung carcinoma (LLC) cells were implanted into the hind limb of C57BL/6 mice (see Hallahan et al., 1995b; Hallahan et al., 1998; Hallahan & Virudachalam, 1999).
(§2) For in vivo panning, tumors were irradiated with 3 Gy and approximately 10^10 phage (prepared as described in Example 1) were administered by tail vein injection into each of the tumor bearing mice at 4 hours following irradiation. Tumors were recovered at one hour following injection and amplified in BL21 bacteria. Amplified phage were pooled and re-administered to a tumor-bearing mouse following tumor irradiation. The phage pool was sequentially administered to a total of 6 animals. As a control, wild type phage lacking synthetic peptide inserts were identically administered to a second experimental group of animals.
(§3) To determine the titer of phage binding in a tumor or in normal tissue, recovered phage were amplified in BL21 bacteria. Bacteria were plated and the number of plaques present was counted. To determine the total phage output per organ, the number of plaque forming units (PFU) on each plate was divided by the volume of phage plated and the weight of each organ. Normal variation was observed as a 2-fold difference in PFU. In the present Example, background binding within tumor blood vessels was approximately 10^4 phage. Phage that bound to the vasculature within irradiated tumors show enrichment in the tumor relative to other organs and enrichment in the irradiated tumor relative to the control phage without DNA insert.
(§4) Following six rounds of in vivo panning, fifty recombinant phage peptides that bound within irradiated tumors were randomly selected for further analysis. The nucleic acid sequence encoding recombinant phage was amplified by PCR using primers set forth as SEQ ID NOs: 20-21 (available from Novagen Brand, a unit of EMD Biosciences, Inc., Madison, Wis.). An individual phage suspension was used as template. Amplified peptides were sequenced using an ABI PRISM® 377 sequencer (Applied Biosystems of Foster City, Calif., United States of America).

GL261 tumors = assay: In vivo panning of T7 phage peptide library: phage recovered from irradiated GL261 tumors; design: species or system mice; conditions: Experiment A, 3 Gy; for Phage Recovered from GL261 tumors: number of sequenced phage after six rounds; for Phage Recovered from GL261 tumors (Frequency): six rounds
Experimental: as §1, §2, §3, §4

[2] = system: B16F0 melanoma, lung carcinoma and glioma tumor models; assay: Binding of phage-encoded peptides in additional tumor models; type: in vivo; conditions: phage encoding the peptide
From the text: The binding properties of phage encoding HVGGSSV (SEQ ID NO: 1), […] (SEQ ID NO: 2), […] (SEQ ID NO: 3), and SVGSRV (SEQ ID NO: 4) were additionally characterized in a B16F0 melanoma model.

responding tumor = assay: Near infrared imaging of Cy7-labeled phage peptide in tumor-bearing mice; type: in vivo, mouse
Experimental: To determine the feasibility of imaging phage peptides binding within tumors, a Xenogen imaging system (Xenogen Corp., Alameda, Calif., United States of America) and near infrared imaging of Cy7-labeled recombinant peptides selected from phage libraries was employed. In order to examine the binding of recombinant phage peptides to responding tumors, preliminary experiments were performed to test the background binding of negative control phage in tumor-bearing animals. The […] was labeled with Cy7 and injected by tail vein into a mouse bearing tumors in both hind limbs. […] The time course of labeled negative control phage circulating throughout the animal over 6 hours was determined. At 1 hour post-injection via the tail vein, Cy7-labeled phage was distributed throughout the entire animal. At 6 hours after tail vein injection, clearance through the kidneys was observed.

D54 and LLC tumors = assay: Imaging of Alexfluor 750-conjugated peptide in responding and non-responding tumors; type: in vivo, nude mice
Experimental: D54 and LLC tumors were implanted into both hind limbs of nude mice as described in Example 2. Tumors were grown over the course of seven to 10 days.
At 24 hours following drug administration, mice were injected with Alexfluor 750-conjugated HVGGSSV (SEQ ID NO: 1) peptide through a jugular catheter.

treated tumors = assay: Kinetics of Cy 7 conjugated peptide binding to treated tumors, daily imaging; type: in vivo, mouse; conditions: Cy 7 conjugate
Experimental: To study the kinetics of peptide binding to treated tumors, animals were imaged daily following administration of Cy 7 conjugated HVGGSSV (SEQ ID NO: 1) peptide. […] At 40 hours, the peptide was excreted by the kidneys. Tumors were located in the left hind limb.

[3] = system: tumor vascular endothelium; assay: Histochemistry of tumor sections after biotinylated peptide; type: in vivo; conditions: 24 hours after administration
Experimental: To determine whether peptide binds to endothelium or blood components, tumors were sectioned at 24 hours following administration of biotinylated HVGGSSV (SEQ ID NO: 1) peptide. Tumor sections were then stained with strepavidin conjugates for histochemistry.

α2bβ3 receptor = target: T1, α2bβ3 receptor (Mus musculus, UniProt O54890+Q9QUM0); assay: Phage binding in irradiated tumors with blocking antibody, plaque formation; type: in vivo; conditions: phage encoding the peptide on the capsid protein
T1 construct: from tissue; host or cells: irradiated tumours (tumour vasculature / blood components) in living mice
T1 sequence (Q9QUM0 32-1033): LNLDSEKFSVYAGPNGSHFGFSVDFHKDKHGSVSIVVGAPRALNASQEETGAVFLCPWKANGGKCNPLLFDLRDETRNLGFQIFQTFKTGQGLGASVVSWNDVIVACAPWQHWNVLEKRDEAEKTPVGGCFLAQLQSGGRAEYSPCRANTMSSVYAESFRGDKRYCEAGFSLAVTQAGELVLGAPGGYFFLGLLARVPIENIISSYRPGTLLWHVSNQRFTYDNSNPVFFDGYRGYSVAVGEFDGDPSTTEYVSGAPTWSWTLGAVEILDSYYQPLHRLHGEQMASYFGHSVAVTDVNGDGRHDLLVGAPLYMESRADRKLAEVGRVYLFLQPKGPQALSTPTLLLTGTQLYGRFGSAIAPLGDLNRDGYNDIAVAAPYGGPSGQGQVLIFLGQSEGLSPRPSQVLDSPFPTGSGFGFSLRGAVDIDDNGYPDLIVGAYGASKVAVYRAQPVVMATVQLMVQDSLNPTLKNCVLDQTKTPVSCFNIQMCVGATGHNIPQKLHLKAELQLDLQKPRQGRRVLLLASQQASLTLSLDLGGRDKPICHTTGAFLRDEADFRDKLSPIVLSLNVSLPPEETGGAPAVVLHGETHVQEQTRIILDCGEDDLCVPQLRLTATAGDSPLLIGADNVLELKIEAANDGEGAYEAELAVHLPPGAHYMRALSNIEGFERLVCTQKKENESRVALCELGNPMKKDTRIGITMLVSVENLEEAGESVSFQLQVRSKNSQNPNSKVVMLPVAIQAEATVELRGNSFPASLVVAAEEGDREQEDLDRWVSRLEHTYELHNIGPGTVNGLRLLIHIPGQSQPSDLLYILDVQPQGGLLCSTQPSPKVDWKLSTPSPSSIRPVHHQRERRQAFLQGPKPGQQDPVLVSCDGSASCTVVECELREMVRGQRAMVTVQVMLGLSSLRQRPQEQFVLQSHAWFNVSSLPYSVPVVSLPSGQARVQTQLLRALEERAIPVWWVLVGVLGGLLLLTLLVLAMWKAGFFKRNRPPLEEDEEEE
T1 sequence (O54890 26-787): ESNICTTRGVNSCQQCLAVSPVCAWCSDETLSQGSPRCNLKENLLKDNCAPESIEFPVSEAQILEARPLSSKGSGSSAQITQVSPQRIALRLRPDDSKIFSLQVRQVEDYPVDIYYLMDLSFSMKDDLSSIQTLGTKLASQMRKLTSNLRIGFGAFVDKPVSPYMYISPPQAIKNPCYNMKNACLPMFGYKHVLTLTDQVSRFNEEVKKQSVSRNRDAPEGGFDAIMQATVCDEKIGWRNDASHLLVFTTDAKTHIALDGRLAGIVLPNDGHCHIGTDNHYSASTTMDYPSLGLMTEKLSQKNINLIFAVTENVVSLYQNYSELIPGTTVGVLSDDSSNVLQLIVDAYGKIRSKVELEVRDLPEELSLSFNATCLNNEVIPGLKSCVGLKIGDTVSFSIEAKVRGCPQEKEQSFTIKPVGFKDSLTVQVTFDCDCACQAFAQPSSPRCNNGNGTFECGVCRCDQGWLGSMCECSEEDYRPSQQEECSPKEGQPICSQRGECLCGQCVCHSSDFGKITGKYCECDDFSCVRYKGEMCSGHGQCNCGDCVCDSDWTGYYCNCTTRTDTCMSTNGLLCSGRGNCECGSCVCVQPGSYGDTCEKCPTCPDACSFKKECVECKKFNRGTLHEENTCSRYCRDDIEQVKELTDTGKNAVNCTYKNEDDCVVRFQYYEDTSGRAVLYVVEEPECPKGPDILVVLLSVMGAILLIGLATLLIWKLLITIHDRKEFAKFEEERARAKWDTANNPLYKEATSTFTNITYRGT
Experimental: An anti-α2bβ3 monoclonal antibody was administered by tail vein to determine whether this receptor is required for recombinant phage binding in irradiated tumors. Phage encoding […] (SEQ ID NO: 2) on the capsid protein were injected immediately after blocking antibody or control antibody. Phage were recovered from the tumor and controls organs and quantified by plaque formation. Radiation induced a 4-fold increase in phage binding in tumor. […] Thus, the tumor binding activity of targeting peptide […] (SEQ ID NO: 2) is dependent on its interaction with the α2bβ3 receptor.

LLC tumors [4] = assay: 131I-labeled peptide binding in hind limb LLC tumors, well counts; type: in vivo, mice
Experimental: Recombinant peptide and ligand binding to the α2bβ3 integrin is dose dependent, with a threshold dose of 6 Gy and maximal binding at 10 Gy. This is the dose range for induction of apoptosis within tumor endothelium (Garcia-Barros & Kolesnick, 2003). […] To determine whether recombinant peptides bind within tumors following this combined therapy, the recombinant peptide […] (SEQ ID NO: 2) was employed. […] Tumors were resected and counts per minute (CPM) were measured by well counts.

[5] = Experiment A, number of sequenced phage after six rounds, 3 Gy

“HVGGSSV (Peptide that binds to LLC and/or GL261 tumors) [peptide isolated by in vivo panning of a phage library]” was tested, and the “Phage Recovered from LLC tumors” value (LLC tumors [1]; [5]) was 7, the “Phage Recovered from LLC tumors (Frequency)” value (LLC tumors [1]; Experiment A, six rounds, 3 Gy) was “(28%)” and the “Phage Recovered from GL261 tumors” value (GL261 tumors) was 12. The “Phage Recovered from GL261 tumors (Frequency)” value (GL261 tumors) was “(48%)”, the “Tumor models within which the phage-encoded peptide bound” value [2] was “bound within the melanoma, lung carcinoma, and glioma tumor models” and the “Binding of Cy7-labeled phage peptide in treated tumor” value (responding tumor; SU11248 and 3 Gy to right hind limb tumor) was “bound within the responding tumor”. For the same substance, the “Binding of Cy7-labeled phage peptide in tumors” value (responding tumor; mouse treated with SU11248 40 mg/kg, one hind limb tumor 3 Gy 24 hours prior to imaging) was “observed in the responding tumor but not an non-responding tumor”, the “Phage binding in negative control tumor” value (responding tumor; no SU11248 or radiation, 24 hours after tail vein injection) was “minimal phage binding” and the “Labeled peptide binding in tumor” value (D54 and LLC tumors; Alexfluor 750 conjugate, tumor treated with SU11248 and radiation, 24 hours after drug) was “Intense peptide binding”. For the same substance, the “Uptake in tumors treated with SU11248 alone compared to untreated tumors” value (D54 and LLC tumors; responding versus non-responding tumors) was “differentially bound to tumors that responded to SU11248 therapy”, the “Labeled peptide binding in tumor” value (D54 and LLC tumors; tumors not responding to therapy, SU11248 alone) was “no increase in peptide binding” and the “Time at which peptide was excreted by the kidneys” value (treated tumors) was 40 h. For the same substance, the “Time over which peptide circulated throughout the mouse” value (treated tumors) was 28 h, the “Time over which peptide remained bound to the tumor” value (treated tumors) was 162 h and the “Binding within the intravascular blood components” value [3] was “minimal or no binding”. For the same substance, the “Site of peptide binding in tumor sections” value ([3]; streptavidin histochemistry) was “bound primarily to tumor vascular endothelium”.

“SLRGDGSSV (Peptide that binds to LLC and/or GL261 tumors) [peptide isolated by in vivo panning]” was tested, and the “Phage Recovered from LLC tumors” value (LLC tumors [1]; [5]) was 7, the “Phage Recovered from LLC tumors (Frequency)” value (LLC tumors [1]; Experiment A, six rounds, 3 Gy) was “(28%)” and the “Phage Recovered from LLC tumors (Frequency)” value (LLC tumors [1]; Experiment B) was “(14%)”. For the same substance, the “Phage Recovered from LLC tumors” value (LLC tumors [1]; Experiment B, number of sequenced phage) was 2, the “Phage Recovered from GL261 tumors” value (GL261 tumors) was 2 and the “Phage Recovered from GL261 tumors (Frequency)” value (GL261 tumors) was “(8%)”. The “Tumor models within which the phage-encoded peptide bound” value [2] was “bound within the melanoma, lung carcinoma, and glioma tumor models”, the “Radiation-induced increase in phage binding in tumor” value (α2bβ3 receptor) was 4 fold and the “Radiolabeled peptide bound in tumors” value (LLC tumors [4]; tumors treated with 2 Gy alone) was 10%. For the same substance, the “Radiolabeled peptide bound in tumors” value (LLC tumors [4]; tumors treated with 10 Gy) was 89%, the “Radiolabeled peptide bound in tumors” value (LLC tumors [4]; tumors treated with SU11248 alone) was 9% and the “Radiolabeled peptide bound in tumors” value (LLC tumors [4]; tumors treated with SU11248 and 2 Gy) was 91%. The “Radiolabeled peptide bound in tumors” value (LLC tumors [4]; untreated control tumors (tumors about 8% of body weight)) was 8%.
